According to patent US20080307843A1, “Nitrification inhibitor and soil improver and fertilizer containing the same” (JAPAN INTERNATIONAL RESEARCH CENTER FOR AGRICULTURAL …, priority 2006, published 2008):

Columns and labels:
[1] = tested on: Nitrosomonas europaea IF014298 with luciferase gene (luxAB); experiment: in-vitro nitrification bacteria test, biological luminescence accompanying nitrification reaction; conditions: incubation at 15° C. for 30 minutes; for 80% inhibitory concentration: concentration where the nitrification inhibitory ratio became 80%
[2] = in the ordinarily used range; RTECS No. QJ5775000; cited from earlier work

Question: For `Clc1cccc(C(Cl)(Cl)Cl)n1` [Comparative Example 14, 2-chloro-6-Trichloromethylpyridine, reference compound], which 80% inhibitory concentration [1] is on record?
Answer: The 80% inhibitory concentration was 4 ppm.

Question: Which 80% inhibitory concentration [1] does the source give for `N#CN=C(N)N` [Comparative Example 15, dicyanodiamide, reference compound] here?
Answer: The 80% inhibitory concentration was 185 ppm.

Question: What does the source list for `O=C1C=CC(=O)c2c(O)cccc21` [Example 1, 5-hydroxy-1,4-naphtoquinone]?
Answer: 80% inhibitory concentration [1]: 0.08 ppm; 50% inhibitory concentration ([1]; concentration where the nitrification-inhibitory ratio became 50%): 0.03 ppm; toxicity [2]: low toxicity
